# Data taken from US20190169140A1, “IDO1 INHIBITOR AND PREPARATION METHOD AND APPLICATION THEREOF” (SHANDONG LUYE PHARMACEUTICAL CO., LTD., priority 2016, published 2019).
# Key:
# [1] = target: T1, recombinant human IDO1 enzyme (Homo sapiens, UniProt P14902); assay: Test of hIDO1 for enzymatic activity in vitro (NFK Green fluorescence); format: biochemical
# T1 construct: purchased NTRC (Netherlands Translational Research Center) NTRC-hIDO-10K
# Method: 1. Test of hIDO1 for Enzymatic Activity In Vitro
# 1.1 Purpose of Experiment:
# Changes in production of NFK, an IDO1 enzymatic metabolite were detected with NFK Green™ fluorescent molecules. With an IC50 value of a compound as an index, an inhibitory effect of the compound on recombinant human IDO1 enzyme was evaluated.
# The compound was diluted with dimethyl sulfoxide (DMSO) to 1 mM, with 10 gradients, each 3-fold dilution, in duplicate. 48 μL of 50 mM phosphate buffer, having pH of 6.5, was transferred by the Bravo automatic liquid processing platform to the compound plate. Then 2 μL of an already diluted compound/DMSO solution was added. After even mixing, 10 μL of the resultant mixture was transferred to the enzymatic reaction plate.
# IDO1 enzyme was diluted to 20 nM in a reaction buffer (50 mM phosphate buffer with pH of 6.5, 0.1% of Tween-20, 2% of glycerol, 20 mM ascorbic acid, 20 μg/ml catalase, and 20 μM methylene blue), 20 μL of the diluted IDO1 enzyme was transferred to the enzymatic reaction plate, and incubated at 23° C. for 30 minutes. 10 μL of 400 μM L-type tryptophan substrate was added to start reaction. The incubation lasted at 23° C. for 90 minutes. 10 μL of NFK Green™ fluorescent dye was added. The resultant mixture was sealed with the plate sealing film. After incubation at 37° C. for 4 hours, an Envision multi-functional plate reader was used for reading (Ex 400 nm/Em 510 nm).
# A reference well to which the IDO1 enzyme was added but no compound was added was set to have an inhibition rate of 0%, and a reference well to which no IDO1 enzyme was added was set to have an inhibition rate of 100%. Data was analyzed with XLFit 5 to calculate an IC50 value of the compound.
# [2] = Test for permeability across MDR1; format: in vitro ADME; details: dog, MDCK-MDR1
# Method: Test for Permeability Across MDR1
# A sample for test was dissolved in dimethyl sulfoxide (DMSO) or other suitable solvents, to be prepared into 10 mM stock solution. A suitable internal standard (IS) was dissolved in acetonitrile (ACN) or other organic solvents as a stop solution. Specific information would be described in a research report.
# Fenoterol, propranolol, and digoxin acted as low-permeability control, high-permeability control, and P-gp substrate in the present research. The stock solutions of these compounds were prepared with DMSO, stocked at 2-8° C., and valid for use within 3 months.
# In the present project, a Hank's balanced salt buffer containing 10 mM HEPES was used as a transport buffer.
# MDR1-MDCK II cells were cultivated using α-MEM culture media (α-Minimum Essential Media), with a culture condition of 37±1° C., 5% CO2, and saturated relative humidity. Afterwards, the cells were inoculated into a BD Transwell-96-well plate (BD Gentest), with an inoculation density of 2.3×10^5 cells/cm^2, then the cells were placed in a carbon dioxide incubator to be incubated for 4-7 days, and then used for a transport experiment.
# A solution to be used was placed in a 37±1° C. water bath kettle to be pre-incubated for 30 minutes. The donor solution and the receiver solution were respectively added to corresponding sides of wells of cell plate (to an apical side and a basolateral side, 75 μL and 250 μL of samples were added respectively), and experiment of bidirectional transport was started. After the addition of the samples, the cell plate was placed in a 37±1° C., 5% CO2 incubator with saturated relative humidity to be incubated for 150 minutes.
# The samples were all centrifuged at 3220 g for 10 minutes after being shaken in a vortex manner. A suitable volume of a supernatant was transferred to a sample analyzing plate. If analysis was not carried out immediately after the plate was sealed, the plate was stored at 2-8° C. The analysis was carried out through a method of LC/MS/MS.
# The sample for test, fenoterol control, propranolol control, and digoxin were analyzed in a semiquantitative manner, and specific values of analytes to a peak area of the internal standard were taken as concentration of the controls.
# [3] = Death and body weight of tumor-bearing mice (CT26 model); format: in vivo
# Method: Therefore, the dose of the two compounds, compound 360 and compound 117, in the present experiment was set as 100 mg/kg. In order to observe dose-efficacy relevance of 231, a dose of the compound 231 was set as 25, 50, 100, 200 mg/kg in the present experiment. All drugs were administered by gavage, twice a day.
# The day of tumor inoculation was defined as Day 0, and the inoculated animals were grouped randomly on the day of inoculation. One day after the inoculation (Day 1), the administration was started. The experiment had 7 groups in total, with 12 animals in each group. See details in Table 12 for information on animal grouping and administration.
# (3) As for animal weight, body weight of the mouse was weighed each time when the tumor diameter was measured or before the administration, and death of the animals was observed once a day.
# 7.1 Death and Body Weight of Tumor-Bearing Mice
# T1 sequence (P14902 whole entry): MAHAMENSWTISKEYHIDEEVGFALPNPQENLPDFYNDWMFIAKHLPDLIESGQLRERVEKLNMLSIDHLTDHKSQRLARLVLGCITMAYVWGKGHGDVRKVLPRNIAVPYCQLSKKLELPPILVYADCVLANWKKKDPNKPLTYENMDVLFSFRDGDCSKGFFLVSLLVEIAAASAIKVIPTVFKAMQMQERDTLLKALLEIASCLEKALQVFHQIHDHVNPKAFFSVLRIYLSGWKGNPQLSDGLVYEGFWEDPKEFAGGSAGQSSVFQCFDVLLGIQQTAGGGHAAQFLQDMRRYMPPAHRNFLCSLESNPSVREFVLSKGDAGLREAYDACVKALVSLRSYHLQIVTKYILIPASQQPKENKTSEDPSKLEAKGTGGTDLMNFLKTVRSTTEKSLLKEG
smiles,measurement,setting,value
NS(=O)(=O)NCCOc1nonc1/C(=N/O)Nc1ccc(F)c(Br)c1 [Compound 0015],IC50,[1],115 nM
same,"Papp A→B at 150 min, 2 µM",[2],1.76 ×10⁻⁶ cm/s
same,"Papp B→A at 150 min, 2 µM",[2],13.6 ×10⁻⁶ cm/s
NS(=O)(=O)NCCSc1nonc1/C(=N/O)Nc1ccc(F)c(Br)c1 [Compound 0117],IC50,[1],26.2 nM
same,"Papp A→B at 150 min, 2 µM",[2],3.2 ×10⁻⁶ cm/s
same,"Papp B→A at 150 min, 2 µM",[2],11.3 ×10⁻⁶ cm/s
same,Rate of Weight Change of D17 vs D1,[3]; 100 mg/kg gavage BID,8.5%
same,body weight compared with the control group when the experiment was ended,[3]; 100 mg/kg gavage BID,remarkably decreased weight
same,Body weight of tumor-bearing mice,"[3]; 100 mg/kg gavage BID, D12",23.1 g
same,Body weight of tumor-bearing mice,"[3]; 100 mg/kg gavage BID, D14",23.3 g
same,Body weight of tumor-bearing mice,"[3]; 100 mg/kg gavage BID, D17",24.2 g
same,Body weight of tumor-bearing mice,"[3]; 100 mg/kg gavage BID, Day1",22.3 g
same,Body weight of tumor-bearing mice,"[3]; 100 mg/kg gavage BID, Day3",22.7 g
same,Body weight of tumor-bearing mice,"[3]; 100 mg/kg gavage BID, Day6",22.7 g
same,Body weight of tumor-bearing mice,"[3]; 100 mg/kg gavage BID, Day8",21.8 g
same,Body weight of tumor-bearing mice,"[3]; 100 mg/kg gavage BID, Day10",22.9 g
CC(=O)NCCSc1nonc1/C(=N/O)Nc1ccc(F)c(Br)c1 [Compound 0227],IC50,[1],59.3 nM
same,"Papp A→B at 150 min, 2 µM",[2],12.5 ×10⁻⁶ cm/s
same,"Papp B→A at 150 min, 2 µM",[2],18 ×10⁻⁶ cm/s
NC(=O)NCCSc1nonc1/C(=N/O)Nc1ccc(F)c(Br)c1 [Compound 0231],IC50,[1],42.2 nM
same,"Papp A→B at 150 min, 2 µM",[2],3.79 ×10⁻⁶ cm/s
same,"Papp B→A at 150 min, 2 µM",[2],17.9 ×10⁻⁶ cm/s
same,Rate of Weight Change of D17 vs D1,[3]; 25 mg/kg gavage BID,12.0%
same,body weight compared with the control group when the experiment was ended,[3]; 25 mg/kg gavage BID,no significant difference
same,Body weight of tumor-bearing mice,"[3]; 25 mg/kg gavage BID, D12",23.9 g
same,Body weight of tumor-bearing mice,"[3]; 25 mg/kg gavage BID, D14",24.4 g
same,Body weight of tumor-bearing mice,"[3]; 25 mg/kg gavage BID, D17",25.2 g
same,Body weight of tumor-bearing mice,"[3]; 25 mg/kg gavage BID, Day1",22.5 g
same,Body weight of tumor-bearing mice,"[3]; 25 mg/kg gavage BID, Day3",21.5 g
same,Body weight of tumor-bearing mice,"[3]; 25 mg/kg gavage BID, Day6",23.3 g
same,Body weight of tumor-bearing mice,"[3]; 25 mg/kg gavage BID, Day8",23.0 g
same,Body weight of tumor-bearing mice,"[3]; 25 mg/kg gavage BID, Day10",23.1 g
same,Rate of Weight Change of D17 vs D1,[3]; 50 mg/kg gavage BID,7.5%
same,body weight compared with the control group when the experiment was ended,[3]; 50 mg/kg gavage BID,remarkably decreased weight
same,Body weight of tumor-bearing mice,"[3]; 50 mg/kg gavage BID, D12",23.4 g
same,Body weight of tumor-bearing mice,"[3]; 50 mg/kg gavage BID, D14",24.2 g
same,Body weight of tumor-bearing mice,"[3]; 50 mg/kg gavage BID, D17",24.5 g
same,Body weight of tumor-bearing mice,"[3]; 50 mg/kg gavage BID, Day1",22.8 g
same,Body weight of tumor-bearing mice,"[3]; 50 mg/kg gavage BID, Day3",23.0 g
same,Body weight of tumor-bearing mice,"[3]; 50 mg/kg gavage BID, Day6",22.7 g
same,Body weight of tumor-bearing mice,"[3]; 50 mg/kg gavage BID, Day8",22.6 g
same,Body weight of tumor-bearing mice,"[3]; 50 mg/kg gavage BID, Day10",23.2 g
same,Rate of Weight Change of D17 vs D1,[3]; 100 mg/kg gavage BID,8.4%
same,body weight compared with the control group when the experiment was ended,[3]; 100 mg/kg gavage BID,remarkably decreased weight
same,Body weight of tumor-bearing mice,"[3]; 100 mg/kg gavage BID, D12",23.5 g
same,Body weight of tumor-bearing mice,"[3]; 100 mg/kg gavage BID, D14",24.3 g
same,Body weight of tumor-bearing mice,"[3]; 100 mg/kg gavage BID, D17",24.4 g
same,Body weight of tumor-bearing mice,"[3]; 100 mg/kg gavage BID, Day1",22.5 g
same,Body weight of tumor-bearing mice,"[3]; 100 mg/kg gavage BID, Day3",22.7 g
same,Body weight of tumor-bearing mice,"[3]; 100 mg/kg gavage BID, Day6",22.8 g
same,Body weight of tumor-bearing mice,"[3]; 100 mg/kg gavage BID, Day8",23.2 g
same,Body weight of tumor-bearing mice,"[3]; 100 mg/kg gavage BID, Day10",23.4 g
same,Rate of Weight Change of D17 vs D1,[3]; 200 mg/kg gavage BID,4.4%
same,body weight compared with the control group when the experiment was ended,[3]; 200 mg/kg gavage BID,remarkably decreased weight
same,Body weight of tumor-bearing mice,"[3]; 200 mg/kg gavage BID, D12",22.3 g
same,Body weight of tumor-bearing mice,"[3]; 200 mg/kg gavage BID, D14",22.9 g
same,Body weight of tumor-bearing mice,"[3]; 200 mg/kg gavage BID, D17",23.7 g
same,Body weight of tumor-bearing mice,"[3]; 200 mg/kg gavage BID, Day1",22.7 g
same,Body weight of tumor-bearing mice,"[3]; 200 mg/kg gavage BID, Day3",23.2 g
same,Body weight of tumor-bearing mice,"[3]; 200 mg/kg gavage BID, Day6",20.8 g
same,Body weight of tumor-bearing mice,"[3]; 200 mg/kg gavage BID, Day8",21.9 g
same,Body weight of tumor-bearing mice,"[3]; 200 mg/kg gavage BID, Day10",22.0 g
"NS(=O)(=O)NCCNc1nonc1C(=NO)Nc1ccc(F)c(Br)c1 [Compound 360, INCB024360, reference compound]","Papp A→B at 150 min, 2 µM",[2],1.61 ×10⁻⁶ cm/s
same,"Papp B→A at 150 min, 2 µM",[2],13.3 ×10⁻⁶ cm/s
same,Rate of Weight Change of D17 vs D1,[3]; 100 mg/kg gavage BID,9.4%
same,body weight compared with the control group when the experiment was ended,[3]; 100 mg/kg gavage BID,no significant difference
same,Body weight of tumor-bearing mice,"[3]; 100 mg/kg gavage BID, D12",24.5 g
same,Body weight of tumor-bearing mice,"[3]; 100 mg/kg gavage BID, D14",25.0 g
same,Body weight of tumor-bearing mice,"[3]; 100 mg/kg gavage BID, D17",25.3 g
same,Body weight of tumor-bearing mice,"[3]; 100 mg/kg gavage BID, Day1",23.2 g
same,Body weight of tumor-bearing mice,"[3]; 100 mg/kg gavage BID, Day3",23.5 g
same,Body weight of tumor-bearing mice,"[3]; 100 mg/kg gavage BID, Day6",23.7 g
same,Body weight of tumor-bearing mice,"[3]; 100 mg/kg gavage BID, Day8",23.5 g
same,Body weight of tumor-bearing mice,"[3]; 100 mg/kg gavage BID, Day10",23.9 g
